Assay results as given in PMC12187869, “Transport of the uremic toxin symmetric dimethylarginine (SDMA) by renal transport proteins” (Amino Acids, 2025).

Experiments:
Format in all cases: cell-based
OATP4C1 [1] = biological target: T1, OATP4C1 (Homo sapiens, UniProt Q6ZQN7); experiment: inhibition of [3H]SDMA uptake in HEK-OATP4C1 cells
T1 construct: gene SLCO4C1; HEK293 cells stably expressing human OATP4C1
T1 sequence (Q6ZQN7 1-724): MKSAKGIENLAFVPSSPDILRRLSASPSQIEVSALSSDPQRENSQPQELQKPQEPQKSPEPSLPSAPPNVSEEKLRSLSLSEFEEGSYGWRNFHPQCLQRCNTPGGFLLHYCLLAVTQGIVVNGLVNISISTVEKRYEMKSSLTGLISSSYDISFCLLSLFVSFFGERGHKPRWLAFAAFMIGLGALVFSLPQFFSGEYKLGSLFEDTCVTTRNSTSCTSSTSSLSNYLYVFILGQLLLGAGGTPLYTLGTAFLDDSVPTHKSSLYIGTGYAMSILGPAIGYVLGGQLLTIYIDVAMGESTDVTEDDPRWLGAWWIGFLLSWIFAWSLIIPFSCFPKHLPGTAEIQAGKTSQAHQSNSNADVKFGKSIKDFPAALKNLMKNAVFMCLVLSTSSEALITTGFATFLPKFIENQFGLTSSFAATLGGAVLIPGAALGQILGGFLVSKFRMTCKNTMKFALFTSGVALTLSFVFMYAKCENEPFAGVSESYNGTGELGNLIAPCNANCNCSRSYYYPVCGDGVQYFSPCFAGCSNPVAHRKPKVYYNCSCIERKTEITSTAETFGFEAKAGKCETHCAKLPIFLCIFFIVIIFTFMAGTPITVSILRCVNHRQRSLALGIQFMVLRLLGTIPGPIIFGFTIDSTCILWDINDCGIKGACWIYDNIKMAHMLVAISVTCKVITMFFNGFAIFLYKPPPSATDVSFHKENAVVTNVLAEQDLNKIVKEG

CAT1 [2] = biological target: T2, CAT1 (Homo sapiens, UniProt P30825); experiment: inhibition of [3H]SDMA uptake in HEK-CAT1 cells
T2 construct: gene SLC7A1; HEK293 cells stably expressing human CAT1

CAT1 [3] = biological target: T2, CAT1; experiment: inhibition of [3H]SDMA uptake in HEK-CAT1 cells at […]
OATP4C1 [4] = biological target: T1, OATP4C1; experiment: inhibition of [3H]SDMA uptake in HEK-OATP4C1 cells at […]
MATE1 = biological target: T3, MATE1 (Homo sapiens, UniProt Q96FL8); experiment: [3H]SDMA uptake kinetics (Km) in HEK-MATE1 cells; conditions: read-out: Km in μM
T3 construct: gene SLC47A1; HEK293 cells stably expressing human MATE1
T3 sequence (Q96FL8 1-570): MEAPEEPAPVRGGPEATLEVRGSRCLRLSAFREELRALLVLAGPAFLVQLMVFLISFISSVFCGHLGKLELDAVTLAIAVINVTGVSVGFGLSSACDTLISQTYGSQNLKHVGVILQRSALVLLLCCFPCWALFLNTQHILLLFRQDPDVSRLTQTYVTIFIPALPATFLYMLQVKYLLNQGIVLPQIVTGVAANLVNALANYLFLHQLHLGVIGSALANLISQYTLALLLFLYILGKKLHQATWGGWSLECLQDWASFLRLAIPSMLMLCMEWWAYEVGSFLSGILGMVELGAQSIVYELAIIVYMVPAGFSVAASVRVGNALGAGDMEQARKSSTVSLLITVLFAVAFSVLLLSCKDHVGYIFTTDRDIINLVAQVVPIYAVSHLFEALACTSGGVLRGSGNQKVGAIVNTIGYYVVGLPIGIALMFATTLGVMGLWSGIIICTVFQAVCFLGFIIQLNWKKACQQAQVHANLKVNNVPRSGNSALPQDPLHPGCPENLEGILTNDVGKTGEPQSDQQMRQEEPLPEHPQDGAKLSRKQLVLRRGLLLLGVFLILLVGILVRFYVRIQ

OCT2 = biological target: T4, OCT2 (Homo sapiens, UniProt O15244); experiment: [3H]SDMA uptake in HEK-OCT2 cells; no saturation up to […]
T4 construct: gene SLC22A2; HEK293 cells stably expressing human OCT2
T4 sequence (O15244 1-555): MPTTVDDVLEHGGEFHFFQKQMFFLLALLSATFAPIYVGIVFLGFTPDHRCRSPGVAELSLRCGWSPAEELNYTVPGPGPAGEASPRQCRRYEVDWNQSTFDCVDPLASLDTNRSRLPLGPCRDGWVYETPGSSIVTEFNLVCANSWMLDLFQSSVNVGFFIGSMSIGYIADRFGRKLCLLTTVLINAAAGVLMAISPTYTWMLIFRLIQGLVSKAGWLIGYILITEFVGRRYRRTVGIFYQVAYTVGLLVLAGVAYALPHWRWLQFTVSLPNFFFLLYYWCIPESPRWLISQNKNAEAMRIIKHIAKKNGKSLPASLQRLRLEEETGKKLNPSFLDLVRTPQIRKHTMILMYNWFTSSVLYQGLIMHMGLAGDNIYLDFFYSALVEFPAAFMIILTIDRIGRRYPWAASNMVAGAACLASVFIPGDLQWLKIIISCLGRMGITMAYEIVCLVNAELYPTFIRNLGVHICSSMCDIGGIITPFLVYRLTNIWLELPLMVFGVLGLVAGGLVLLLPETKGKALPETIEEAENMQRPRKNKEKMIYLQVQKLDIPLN

T2 sequence (P30825 whole entry): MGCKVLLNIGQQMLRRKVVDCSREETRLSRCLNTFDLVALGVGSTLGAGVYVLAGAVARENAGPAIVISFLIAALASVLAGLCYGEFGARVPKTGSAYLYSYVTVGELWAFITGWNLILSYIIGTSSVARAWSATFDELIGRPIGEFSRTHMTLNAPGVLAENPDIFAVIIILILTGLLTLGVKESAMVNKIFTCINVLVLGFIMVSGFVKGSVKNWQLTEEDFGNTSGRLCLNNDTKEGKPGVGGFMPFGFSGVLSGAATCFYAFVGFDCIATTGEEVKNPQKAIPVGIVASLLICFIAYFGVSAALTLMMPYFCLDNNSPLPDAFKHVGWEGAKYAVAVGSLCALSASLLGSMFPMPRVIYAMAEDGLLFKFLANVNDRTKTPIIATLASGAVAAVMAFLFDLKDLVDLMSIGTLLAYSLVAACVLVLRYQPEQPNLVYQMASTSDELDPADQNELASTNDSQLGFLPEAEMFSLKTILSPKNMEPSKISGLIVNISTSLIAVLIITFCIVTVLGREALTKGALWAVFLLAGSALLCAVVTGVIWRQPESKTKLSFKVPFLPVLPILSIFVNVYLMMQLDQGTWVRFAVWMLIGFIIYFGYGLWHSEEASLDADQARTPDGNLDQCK

N=C(N)NCCC[C@H](N)C(=O)O [L-arginine]
IC50 (OATP4C1 [1]): 28.8 µM | IC50 (CAT1 [2]): 280 µM

CN(C)C(=N)NCCC[C@H](N)C(=O)O [ADMA]
inhibition of [3H]SDMA uptake in HEK-CAT1 cells at 50 and 500 μM (CAT1 [3]): all influenced SDMA transport, thereby competing with SDMA for CAT1- or OATP4C1-mediated uptake

N=C(N)NCCCC[C@H](N)C(=O)O [L-homoarginine]
inhibition of [3H]SDMA uptake in HEK-OATP4C1 cells at 50 and 500 μM (OATP4C1 [4]): all influenced SDMA transport, thereby competing with SDMA for CAT1- or OATP4C1-mediated uptake

CN=C(NC)NCCC[C@H](N)C(=O)O [symmetric dimethylarginine]
Km (MATE1): 1970 µM | [3H]SDMA uptake in HEK-OCT2 cells; no saturation up to 4 000 μM (OCT2): significant uptake was observed for CAT1-, OATP4C1-, OCT2-, and MATE1-mediated transport
